Assay results taken from patent US7514448B2, “Azaindoles useful as inhibitors of rock and other protein kinases” (Vertex Pharmaceuticals Incorporated, priority 2004, dated 2009).

Assays:
Type in all cases: biochemical
PKA = PKA (Homo sapiens, UniProt P17612); assay: PKA inhibition assay, coupled enzyme; settings: average Ki if more than one determined
Procedure, shortened: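 Coupled PK/LDH assay following NADH depletion: 18 nM PKA, 50 μM ATP, 80 μM Kemptide in 100 mM HEPES pH 7.5, 10 mM MgCl2, 25 mM NaCl, 1 mM DTT, 3% DMSO, at 30 °C. Compound preincubated 10 min before ATP start; initial rates over 15 min, IC50 and Ki by non-linear regression.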

ROCK = ROCK (Homo sapiens, UniProt Q13464); assay: ROCK radioactive assay ("33P"); settings: radioactive assay; average Ki if more than one determined; read-out: ROCK 33P Ki
Excerpt: (§1) If more than one value of Ki has been determined, the average Ki is indicated. If no value is indicated, then the Ki was not determined.

ROCK I (AA 6-553) = ROCK I (AA 6-553) (Homo sapiens, UniProt Q13464); assay: ROCK inhibition assay, coupled enzyme system ("Enzyme"); settings: enzyme-linked assay; average Ki if more than one determined
Description: Reactions were carried out in a solution containing 100 mM HEPES (pH 7.5), 10 mM MgCl2, 25 mM NaCl, 2 mM DTT and 1.5% DMSO.
as §1

ROCK I (AA 6-553), sequence (Q13464 6-553, species assumed): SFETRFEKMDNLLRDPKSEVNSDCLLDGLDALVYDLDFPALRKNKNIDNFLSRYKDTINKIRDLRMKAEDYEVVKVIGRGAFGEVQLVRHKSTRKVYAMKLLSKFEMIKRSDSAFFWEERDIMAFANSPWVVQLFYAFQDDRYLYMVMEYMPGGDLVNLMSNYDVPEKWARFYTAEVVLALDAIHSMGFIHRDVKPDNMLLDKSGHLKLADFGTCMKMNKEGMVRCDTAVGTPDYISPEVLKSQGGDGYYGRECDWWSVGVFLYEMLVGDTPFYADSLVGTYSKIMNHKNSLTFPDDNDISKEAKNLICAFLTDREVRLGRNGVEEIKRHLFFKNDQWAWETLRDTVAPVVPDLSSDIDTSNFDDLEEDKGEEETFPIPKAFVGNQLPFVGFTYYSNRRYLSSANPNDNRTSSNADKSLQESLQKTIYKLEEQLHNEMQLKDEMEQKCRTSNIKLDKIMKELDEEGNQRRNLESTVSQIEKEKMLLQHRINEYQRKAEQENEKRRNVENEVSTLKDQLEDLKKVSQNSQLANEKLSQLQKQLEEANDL
ROCK, sequence (Q13464 whole entry): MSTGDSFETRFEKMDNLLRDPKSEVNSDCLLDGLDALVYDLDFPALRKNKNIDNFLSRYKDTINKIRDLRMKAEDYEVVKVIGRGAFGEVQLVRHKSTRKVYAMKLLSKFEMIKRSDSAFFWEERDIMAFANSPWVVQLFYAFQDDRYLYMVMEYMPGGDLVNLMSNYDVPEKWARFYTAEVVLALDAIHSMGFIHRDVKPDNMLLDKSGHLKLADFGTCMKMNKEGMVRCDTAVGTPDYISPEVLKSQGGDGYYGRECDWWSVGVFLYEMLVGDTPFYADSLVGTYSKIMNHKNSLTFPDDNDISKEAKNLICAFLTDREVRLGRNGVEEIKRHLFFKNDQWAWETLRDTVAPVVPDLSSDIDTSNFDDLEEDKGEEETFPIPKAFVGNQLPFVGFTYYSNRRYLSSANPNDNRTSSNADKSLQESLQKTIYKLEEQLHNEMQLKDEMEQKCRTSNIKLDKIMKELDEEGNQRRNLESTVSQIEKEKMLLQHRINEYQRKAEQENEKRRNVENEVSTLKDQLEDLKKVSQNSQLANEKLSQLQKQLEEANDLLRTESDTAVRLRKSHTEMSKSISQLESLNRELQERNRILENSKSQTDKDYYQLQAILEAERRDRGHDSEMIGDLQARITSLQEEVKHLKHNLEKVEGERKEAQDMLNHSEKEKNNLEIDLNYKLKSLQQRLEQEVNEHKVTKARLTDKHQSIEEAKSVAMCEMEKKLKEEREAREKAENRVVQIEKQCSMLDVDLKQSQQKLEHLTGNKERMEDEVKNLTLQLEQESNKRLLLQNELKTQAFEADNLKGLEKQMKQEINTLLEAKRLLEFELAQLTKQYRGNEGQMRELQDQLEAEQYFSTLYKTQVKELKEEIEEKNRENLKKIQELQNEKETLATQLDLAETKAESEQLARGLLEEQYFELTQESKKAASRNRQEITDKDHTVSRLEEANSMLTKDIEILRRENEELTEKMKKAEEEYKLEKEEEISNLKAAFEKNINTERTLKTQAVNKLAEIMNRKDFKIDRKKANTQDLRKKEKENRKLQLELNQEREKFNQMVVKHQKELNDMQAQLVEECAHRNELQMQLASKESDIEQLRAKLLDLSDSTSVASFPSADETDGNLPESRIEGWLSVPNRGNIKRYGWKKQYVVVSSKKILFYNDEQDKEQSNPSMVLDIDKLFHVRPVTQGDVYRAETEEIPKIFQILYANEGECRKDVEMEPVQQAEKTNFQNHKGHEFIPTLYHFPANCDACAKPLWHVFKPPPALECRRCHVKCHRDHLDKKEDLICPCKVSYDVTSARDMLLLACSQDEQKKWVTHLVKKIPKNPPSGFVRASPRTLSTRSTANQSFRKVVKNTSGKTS

Structure (SMILES) | Ki (PKA) | Ki (ROCK) | Ki (ROCK I (AA 6-553))
O=C(Cc1cccc(S(=O)(=O)NCCCN2CCOCC2)c1)Nc1nc(-c2c[nH]c3ncccc23)cs1 [II-126] | < 0.5 µM | < 0.5 µM | < 0.5 µM
CN1CCN(S(=O)(=O)c2cccc(CC(=O)Nc3nc(-c4c[nH]c5ncccc45)cs3)c2)CC1 [II-51] | < 0.5 µM | < 0.5 µM | < 0.5 µM
CS(=O)(=O)Nc1cccc(CC(=O)Nc2nc(-c3c[nH]c4ncc(F)cc34)cs2)c1 [II-120] | < 0.5 µM | < 0.5 µM | < 0.5 µM
COc1cccc(CC(=O)Nc2ccc(-c3c[nH]c4ncccc34)s2)c1 [II-127] | < 0.5 µM | < 0.5 µM | < 0.5 µM
O=C(Cc1cccc(S(=O)(=O)N2CCOCC2)c1)Nc1ccc(-c2c[nH]c3ncccc23)s1 [II-129] | 0.5 to 5 µM | < 0.5 µM | < 0.5 µM
O=C(Cc1cccc(S(=O)(=O)N2CCOCC2)c1)Nc1nc(-c2c[nH]c3ncc(F)cc23)cs1 [II-121] | 0.5 to 5 µM | < 0.5 µM | < 0.5 µM
CN1CCN(CCCNS(=O)(=O)c2cccc(CC(=O)Nc3nc(-c4c[nH]c5ncccc45)cs3)c2)CC1 [II-125] | < 0.5 µM | < 0.5 µM | < 0.5 µM
CS(=O)(=O)Nc1cccc(CNC(=O)c2csc(-c3c[nH]c4ncccc34)c2)c1 [II-117] | < 0.5 µM | < 0.5 µM | < 0.5 µM
CS(=O)(=O)Nc1cccc(CNC(=O)c2ccc(-c3c[nH]c4ncccc34)s2)c1 [II-115] | < 0.5 µM | < 0.5 µM | < 0.5 µM
N#CCC(=O)Nc1nc(-c2c[nH]c3ncccc23)cs1 [II-116] | < 0.5 µM | < 0.5 µM | < 0.5 µM
CN1CCN(CCOc2ccc(CC(=O)Nc3nc(-c4c[nH]c5ncccc45)cs3)c(Cl)c2)CC1 [II-109] | 0.5 to 5 µM | < 0.5 µM | < 0.5 µM
O=C(Cc1ccc(F)cc1F)Nc1nc(-c2c[nH]c3ncc(F)cc23)cs1 [II-122] | < 0.5 µM | < 0.5 µM | < 0.5 µM
O=C(Cc1ccc(OCCCN2CCNCC2)cc1Cl)Nc1nc(-c2c[nH]c3ncccc23)cs1 [II-110] | 0.5 to 5 µM | < 0.5 µM | < 0.5 µM
O=C(Cc1ccccc1)Nc1nc(-c2c[nH]c3ncc(F)cc23)cs1 [II-118] | < 0.5 µM | < 0.5 µM | < 0.5 µM
COc1cccc(CNC(=O)c2csc(-c3c[nH]c4ncccc34)c2)c1 [II-114] | < 0.5 µM | < 0.5 µM | < 0.5 µM
O=C(Cc1ccccc1)Nc1nc(-c2c[nH]c3nccc(Cl)c23)cs1 [II-91] | < 0.5 µM | – | < 0.5 µM
O=C(Cc1ccccc1F)Nc1nc(-c2c[nH]c3nccc(F)c23)cs1 [II-11] | < 0.5 µM | – | < 0.5 µM
COc1cccc(C2CCCN(c3nc(-c4c[nH]c5ncccc45)cs3)C2=O)c1 (centres unmarked) [II-96] | < 0.5 µM | – | < 0.5 µM
COc1ccc(CC(=O)N(c2nc(-c3c[nH]c4ncccc34)cs2)C2CC2)c(Cl)c1 [II-75] | < 0.5 µM | – | < 0.5 µM
CS(=O)(=O)c1ccc(CC(=O)Nc2nc(-c3c[nH]c4ncccc34)cs2)cc1 [II-74] | 0.5 to 5 µM | – | < 0.5 µM

Structure (SMILES) | Ki (PKA) | Ki (ROCK) | Ki (ROCK I (AA 6-553))
O=C(Cc1cccc(S(=O)(=O)N2CCOCC2)c1)Nc1nc(-c2c[nH]c3ncc(Cl)cc23)cs1 [II-105] | 0.5 to 5 µM | – | < 0.5 µM
CS(=O)(=O)Nc1cccc(CC(=O)Nc2ccc(-c3c[nH]c4ncccc34)s2)c1 [II-128] | < 0.5 µM | < 0.5 µM | < 0.5 µM
O=C(Cc1cccc(OCCCN2CCNCC2)c1)N(c1nc(-c2c[nH]c3ncccc23)cs1)C1CC1 [II-83] | 0.5 to 5 µM | – | < 0.5 µM
O=C(Cc1ccccc1)Nc1csc(-c2c[nH]c3ncccc23)n1 [II-62] | < 0.5 µM | – | < 0.5 µM
COc1cccc(CC(=O)Nc2nc(-c3c[nH]c4ncc(F)cc34)cs2)c1 [II-119] | < 0.5 µM | < 0.5 µM | < 0.5 µM
O=C(Cc1ccc(F)cc1F)Nc1nc(-c2c[nH]c3nccc(F)c23)cs1 [II-13] | < 0.5 µM | – | < 0.5 µM
O=C(Cc1ccccc1)Nc1nnc(-c2c[nH]c3ncccc23)s1 [II-8] | < 0.5 µM | – | < 0.5 µM
O=C(Cc1ccc(F)cc1)Nc1nc(-c2c[nH]c3nccc(F)c23)cs1 [II-12] | < 0.5 µM | – | < 0.5 µM
CN(c1cccc(CC(=O)Nc2nc(-c3c[nH]c4ncccc34)cs2)c1)S(C)(=O)=O [II-113] | < 0.5 µM | – | < 0.5 µM
O=C(CCc1ccccc1)Nc1nc(-c2c[nH]c3nccc(F)c23)cs1 [II-15] | < 0.5 µM | – | < 0.5 µM
CN1CCN(CCCOc2ccc(CC(=O)Nc3nc(-c4c[nH]c5ncccc45)cs3)c(Cl)c2)CC1 [II-111] | 0.5 to 5 µM | < 0.5 µM | < 0.5 µM
COc1cccc(CC(=O)Nc2nnc(-c3c[nH]c4ncccc34)s2)c1 [I-21] | < 0.5 µM | – | < 0.5 µM
CN1CCN(CCCOc2cccc(CC(=O)Nc3nc(-c4c[nH]c5nccc(F)c45)cs3)c2)CC1 [II-37] | 0.5 to 5 µM | – | < 0.5 µM
O=C(Cc1ccc(OCCN2CCNCC2)cc1Cl)Nc1nc(-c2c[nH]c3ncccc23)cs1 [II-108] | 0.5 to 5 µM | < 0.5 µM | < 0.5 µM
O=C(Cc1cccc(S(=O)(=O)NCCCN2CCNCC2)c1)Nc1nc(-c2c[nH]c3ncccc23)cs1 [II-123] | < 0.5 µM | < 0.5 µM | < 0.5 µM
O=C(Cc1cccc(S(=O)(=O)N2CCOCC2)c1)Nc1cc(-c2c[nH]c3ncccc23)cs1 [II-59] | < 0.5 µM | – | < 0.5 µM
CCN(CC)S(=O)(=O)c1cccc(CC(=O)Nc2nc(-c3c[nH]c4ncccc34)cs2)c1 [II-24] | 0.5 to 5 µM | – | < 0.5 µM
O=C(CCc1ccccc1)Nc1nc(-c2c[nH]c3ncccc23)cs1 [I-7] | < 0.5 µM | – | < 0.5 µM
O=C(Cc1cccc(S(=O)(=O)N2CCC(O)C2)c1)Nc1nc(-c2c[nH]c3ncccc23)cs1 (centres unmarked) [II-124] | < 0.5 µM | < 0.5 µM | < 0.5 µM
O=C(NCc1ccc(F)cc1F)c1ccc(-c2c[nH]c3ncccc23)s1 [II-28] | < 0.5 µM | – | < 0.5 µM
